# Assays:
# [1] = biological target: T1, FVIII (Homo sapiens, UniProt P00451); experiment: Binding of OPLS to FVIII by fluorescence spectroscopy
# T1 construct: Full length recombinant human FVIII (Baxter Biosciences, Carlsbad, Calif.) was obtained as a gift; purchased Baxter Biosciences (gift from the Western New York Hemophilia Foundation)
# Procedure: (§1) The binding of OPLS to several therapeutic proteins was evaluated using fluorescence spectroscopy (FIG. 2).
# [2] = Safety of repeated high doses of OPLS; assay type: in vivo, rodent and primate models; details: up to 950 mg
# Procedure: Given that the methods disclosed herein appear to work best with doses of OPLS that equal or exceed 5 mg, it is important to understand the safety and toxicity of high doses of OPLS.
# [3] = biological target: T2, GAA peptide (Homo sapiens, UniProt P10253); experiment: Binding of OPLS to GAA peptide by ultraviolet/visible spectroscopy
# T2 construct: purchased American Peptide Company (Sunnyvale, Calif.); host or cells: chemical synthesis
# Source text: Instead of using fluorescence to detect binding, ultraviolet/visible spectroscopy was used.
# [4] = biological target: T3, OVA (Gallus gallus, UniProt P01012); experiment: Binding of OPLS to OVA by fluorescence spectroscopy
# T3 construct: purchased Sigma (St. Louis, Mo.)
# Procedure: as §1
# [5] = test system: lymphocyte subsets; experiment: Lymphocyte subsets in peripheral blood after 21 daily doses of OPLS; assay type: in vivo, rhesus macaques; details: 21 daily doses of 25 mg/kg
# Procedure: FIG. 23. Effect of 21 daily doses of 25 mg/kg OPLS on lymphocyte subsets in peripheral blood of rhesus macaques. Samples were drawn from the animals at baseline (day 0), at an intermediate time point during treatment (day 8) and 1 day after the termination of dosing (day 22) and immunophenotyped using flow cytometry. […] (*p value<0.05).
# [6] = Plasma chemistry markers after 28 daily injections of OPLS; assay type: in vivo, CD-1 mice; details: up to highest dose, 1 day after dosing
# Source text: FIG. 21. Effect of 28 daily injections of a range of OPLS doses on plasma chemistry markers of CD-1 mice. Samples were collected from animals 1 day after the termination of dosing.
# [7] = test system: TNF-α; experiment: Cytokine profile of BMDCs in vitro, TNF-α ELISA; assay type: cell-based, HA mice; details: 1 μg/ml FVIII with 50 mM OPLS, 48 hours, n=4
# Procedure: Generation of bone marrow derived dendritic cells (BMDC): Bone marrow was isolated from 6 to 8 week old naïve HA. Briefly, bone marrow was cultured in RPMI media supplemented with […] (low endotoxin), 2-mercaptoethanol, Pen/Strep and […] GMCSF. Media was changed on days 3, 6 and 8 of culture and DCs were used on day 9. BMDC are then harvested and used as needed. To verify the differentiation of bone marrow cells into DCs, CD11c surface expression was confirmed by flow cytometry using anti-CD11c-FITC antibody with appropriate isotope controls.
# Effects of OPLS on cytokine profile of BMDCs in vitro: The effects of OPLS on cytokine secretion by dendritic cells were investigated. On day 9 BMDCs, generated as above, were treated with FVIII as an antigen in the presence of increasing dose of OPLS. Changes in production of pro-inflammatory cytokines TNF-α and IL12p70 as well as the regulatory cytokine TGF-β were monitored as a function of dose. BMDCs were exposed to 1 μg/ml FVIII with increasing dose of OPLS (0, 0.5, 1, 10, 25, 50 mM). 1 M stock of OPLS was prepared by adding the appropriate amount of OPLS directly to RPMI media, and pH was adjusted using sterile 3N and 1N NaOH. […] TGF-β, TNF-α and IL-12p70 concentrations were determined using standard ELISA (R&D System Inc. Minneapolis, Minn., USA or Invitrogen […], Calif.).
# [8] = test system: anti-GAA peptide antibody titers; experiment: Effect of OPLS and PS-liposomes on GAA peptide immunogenicity; assay type: in vivo, mouse; details: 10 μg peptide, 4 weekly s.c.; OPLS 5 mg or PS/PC 1:10,000 protein:lipid
# Procedure: Materials and Methods. GAA peptide Source: This GAA peptide was produced by American Peptide Company (Sunnyvale, Calif.). They produced for us a peptide […] containing amino acids 339-352 of the full length GAA sequence, YIFLGPEPKSVVQ (SEQ ID NO:1). OPLS Source: Sigma-Aldrich (St. Louis, Mo.) Peptide concentration dose: 10 μg/injection. Free GAA peptide (n=4), PS-GAA peptide (n=4), and OPLS-GAA peptide (n=5). Each mouse received 4 weekly subcutaneous (s.c.) injections near the base of the tail of 100 μl/injection of their treatment. Two weeks after the last injection, a retro-orbital blood sample was taken from each mouse. Samples were stored at −80° C. until analysis. These samples were then analyzed for anti-GAA peptide Ab titers. Anti-GAA antibody titers were measured as follows: ELISA plate (maxisorp, NUNC) was coated with 100 μl of 10 μg/ml of sterile rhGAA in sodium carbonate-bicarbonate buffer pH=9.6. The plate was incubated overnight at 4° C. The plate was washed six times with PBS containing 0.05% Tween 20 (PBS-T, 250 μl/well) using an automated plate washer. […] The reaction was stopped with 2 N sulfuric acid and read immediately at 450 nm using a micro-plate reader. The titer values are quantitated using a statistical endpoint method as described by Frey et al. Control plasma samples were run on each plate. […]
# T1 sequence (P00451 20-2351): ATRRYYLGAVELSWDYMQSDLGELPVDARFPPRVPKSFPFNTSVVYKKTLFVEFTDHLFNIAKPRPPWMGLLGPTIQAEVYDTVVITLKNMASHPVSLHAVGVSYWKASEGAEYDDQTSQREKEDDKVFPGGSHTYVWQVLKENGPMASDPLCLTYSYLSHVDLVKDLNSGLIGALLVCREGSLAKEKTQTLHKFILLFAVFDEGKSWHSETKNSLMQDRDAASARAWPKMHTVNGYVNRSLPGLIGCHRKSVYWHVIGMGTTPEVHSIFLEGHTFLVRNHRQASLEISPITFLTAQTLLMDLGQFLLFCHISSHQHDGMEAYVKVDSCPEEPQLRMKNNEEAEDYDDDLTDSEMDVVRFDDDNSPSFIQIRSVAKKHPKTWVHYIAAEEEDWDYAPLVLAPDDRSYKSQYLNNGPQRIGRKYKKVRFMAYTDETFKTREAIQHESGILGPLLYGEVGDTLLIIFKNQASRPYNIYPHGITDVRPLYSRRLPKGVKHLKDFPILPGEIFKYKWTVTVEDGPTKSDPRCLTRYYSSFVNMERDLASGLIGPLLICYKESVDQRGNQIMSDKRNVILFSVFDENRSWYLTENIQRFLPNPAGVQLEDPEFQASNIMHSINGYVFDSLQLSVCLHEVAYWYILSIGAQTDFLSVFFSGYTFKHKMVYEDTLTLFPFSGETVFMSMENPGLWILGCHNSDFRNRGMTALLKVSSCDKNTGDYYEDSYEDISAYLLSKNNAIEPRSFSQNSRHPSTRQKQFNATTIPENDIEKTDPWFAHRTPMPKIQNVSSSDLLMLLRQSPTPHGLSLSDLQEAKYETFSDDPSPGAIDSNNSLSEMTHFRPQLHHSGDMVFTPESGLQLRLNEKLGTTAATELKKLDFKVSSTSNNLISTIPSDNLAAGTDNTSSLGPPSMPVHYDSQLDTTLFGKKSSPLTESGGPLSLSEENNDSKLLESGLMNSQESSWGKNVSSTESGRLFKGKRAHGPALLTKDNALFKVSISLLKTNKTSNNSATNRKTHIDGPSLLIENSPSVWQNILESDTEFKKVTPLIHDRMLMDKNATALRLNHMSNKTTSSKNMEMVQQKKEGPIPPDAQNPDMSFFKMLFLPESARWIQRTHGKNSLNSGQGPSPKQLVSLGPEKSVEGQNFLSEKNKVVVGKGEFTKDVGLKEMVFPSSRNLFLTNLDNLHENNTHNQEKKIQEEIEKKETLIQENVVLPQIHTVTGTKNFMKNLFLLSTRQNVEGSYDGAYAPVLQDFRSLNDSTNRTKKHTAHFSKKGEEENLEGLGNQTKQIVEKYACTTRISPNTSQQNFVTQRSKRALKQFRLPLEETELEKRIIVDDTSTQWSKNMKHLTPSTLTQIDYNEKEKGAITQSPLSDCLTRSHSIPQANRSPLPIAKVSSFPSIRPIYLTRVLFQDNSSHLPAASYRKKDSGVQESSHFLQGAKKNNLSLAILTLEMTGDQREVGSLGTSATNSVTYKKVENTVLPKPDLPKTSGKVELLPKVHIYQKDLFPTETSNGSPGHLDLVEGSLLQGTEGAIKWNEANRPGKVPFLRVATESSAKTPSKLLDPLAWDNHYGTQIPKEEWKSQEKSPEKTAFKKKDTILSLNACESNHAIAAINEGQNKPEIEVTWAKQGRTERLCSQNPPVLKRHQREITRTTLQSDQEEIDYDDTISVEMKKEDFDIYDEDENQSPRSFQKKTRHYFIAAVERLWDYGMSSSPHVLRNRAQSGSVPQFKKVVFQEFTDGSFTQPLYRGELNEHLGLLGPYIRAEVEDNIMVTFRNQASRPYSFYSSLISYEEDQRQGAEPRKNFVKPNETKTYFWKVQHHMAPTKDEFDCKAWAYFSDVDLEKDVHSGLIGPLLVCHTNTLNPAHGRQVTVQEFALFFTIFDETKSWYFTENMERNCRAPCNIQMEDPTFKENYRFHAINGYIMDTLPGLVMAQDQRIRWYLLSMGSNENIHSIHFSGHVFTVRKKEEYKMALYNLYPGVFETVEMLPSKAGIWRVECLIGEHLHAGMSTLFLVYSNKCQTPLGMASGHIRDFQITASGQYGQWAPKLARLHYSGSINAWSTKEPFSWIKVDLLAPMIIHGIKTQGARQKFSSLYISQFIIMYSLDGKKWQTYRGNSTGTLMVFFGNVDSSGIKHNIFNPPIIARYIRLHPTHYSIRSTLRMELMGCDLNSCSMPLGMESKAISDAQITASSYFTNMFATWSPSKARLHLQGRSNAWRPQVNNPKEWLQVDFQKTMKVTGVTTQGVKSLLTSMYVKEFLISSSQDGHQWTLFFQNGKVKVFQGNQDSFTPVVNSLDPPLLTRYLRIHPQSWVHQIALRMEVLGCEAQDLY
# T1 sequence (P00451 20-1667 partner limits assumed): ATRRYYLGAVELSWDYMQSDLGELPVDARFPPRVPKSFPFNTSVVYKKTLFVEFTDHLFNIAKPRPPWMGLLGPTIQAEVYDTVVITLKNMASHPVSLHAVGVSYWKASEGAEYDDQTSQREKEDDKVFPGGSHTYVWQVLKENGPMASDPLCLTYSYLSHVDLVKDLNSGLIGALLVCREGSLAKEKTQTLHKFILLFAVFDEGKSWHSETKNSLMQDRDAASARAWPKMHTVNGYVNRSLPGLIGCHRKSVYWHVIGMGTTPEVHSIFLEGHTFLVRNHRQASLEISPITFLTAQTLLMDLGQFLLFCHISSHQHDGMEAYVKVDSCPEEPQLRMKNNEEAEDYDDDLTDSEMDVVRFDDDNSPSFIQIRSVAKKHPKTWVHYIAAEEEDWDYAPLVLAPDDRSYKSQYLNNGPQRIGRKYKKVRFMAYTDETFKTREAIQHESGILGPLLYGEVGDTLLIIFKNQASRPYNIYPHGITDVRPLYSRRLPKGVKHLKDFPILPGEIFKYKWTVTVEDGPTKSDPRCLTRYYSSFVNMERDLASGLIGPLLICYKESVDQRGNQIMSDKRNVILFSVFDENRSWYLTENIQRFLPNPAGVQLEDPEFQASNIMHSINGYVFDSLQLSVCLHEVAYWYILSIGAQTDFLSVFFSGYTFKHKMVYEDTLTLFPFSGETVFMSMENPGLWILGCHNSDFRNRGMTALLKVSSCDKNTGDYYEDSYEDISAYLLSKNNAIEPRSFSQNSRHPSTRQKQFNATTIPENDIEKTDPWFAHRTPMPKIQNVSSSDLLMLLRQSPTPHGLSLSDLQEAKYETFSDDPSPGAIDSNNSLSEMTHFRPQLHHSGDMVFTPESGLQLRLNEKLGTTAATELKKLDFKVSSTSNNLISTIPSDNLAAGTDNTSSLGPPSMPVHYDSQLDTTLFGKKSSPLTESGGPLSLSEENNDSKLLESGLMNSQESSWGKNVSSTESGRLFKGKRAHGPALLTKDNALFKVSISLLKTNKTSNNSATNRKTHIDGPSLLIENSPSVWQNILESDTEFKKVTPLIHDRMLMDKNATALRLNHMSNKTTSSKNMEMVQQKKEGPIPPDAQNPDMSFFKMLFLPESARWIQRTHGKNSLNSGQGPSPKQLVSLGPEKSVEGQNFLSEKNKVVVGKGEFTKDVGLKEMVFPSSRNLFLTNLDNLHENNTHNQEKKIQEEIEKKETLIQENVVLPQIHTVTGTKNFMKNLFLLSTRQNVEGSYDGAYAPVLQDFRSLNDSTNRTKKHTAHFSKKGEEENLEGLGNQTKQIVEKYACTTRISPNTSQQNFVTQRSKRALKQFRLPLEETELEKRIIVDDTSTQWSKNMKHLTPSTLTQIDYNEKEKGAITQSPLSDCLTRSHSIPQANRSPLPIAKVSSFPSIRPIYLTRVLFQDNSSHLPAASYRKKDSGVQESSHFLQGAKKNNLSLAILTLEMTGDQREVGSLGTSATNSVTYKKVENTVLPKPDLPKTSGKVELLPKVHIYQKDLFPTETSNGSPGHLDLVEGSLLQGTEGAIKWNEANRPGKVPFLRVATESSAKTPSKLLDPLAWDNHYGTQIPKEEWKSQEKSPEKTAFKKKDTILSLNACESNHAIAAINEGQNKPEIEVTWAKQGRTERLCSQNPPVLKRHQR
# T3 sequence (P01012 whole entry): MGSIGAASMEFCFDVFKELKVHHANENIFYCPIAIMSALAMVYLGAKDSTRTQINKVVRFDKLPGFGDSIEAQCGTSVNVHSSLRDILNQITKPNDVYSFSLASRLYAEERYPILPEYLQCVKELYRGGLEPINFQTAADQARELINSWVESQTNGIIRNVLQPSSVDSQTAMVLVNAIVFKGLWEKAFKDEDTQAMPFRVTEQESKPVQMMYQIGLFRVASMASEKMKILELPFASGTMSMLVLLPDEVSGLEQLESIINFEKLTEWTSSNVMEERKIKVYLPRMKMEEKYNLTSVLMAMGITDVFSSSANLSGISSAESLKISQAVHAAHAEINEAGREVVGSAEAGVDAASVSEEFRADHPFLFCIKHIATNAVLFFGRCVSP
smiles,measurement,setting,value
"N[C@@H](COP(=O)(O)O)C(=O)O [OPLS, O-Phospho-L-Serine]",Kd,"[1]; fluorescence titration, FIG. 2, read-out: Dissociation constant (Kd) of OPLS binding to FVIII",8.4 µM
same,Binding affinity of FVIII for OPLS,[1]; spectroscopic titration,highest affinity
same,"Tolerability of repeated, high doses",[2],well tolerated
same,Binding of GAA peptide to OPLS,[3],did not bind
same,Kd,"[4]; fluorescence titration, FIG. 2, read-out: Dissociation constant (Kd) of OPLS binding to OVA",2570 µM
same,Binding affinity of OVA for OPLS,[4]; spectroscopic titration,lowest affinity
same,% of B-cells,[5],transient increase
same,"Lymphocyte subsets, baseline vs post treatment","[5]; days 0, 8, 22",no significant change
same,Impact on renal and hepatic function (plasma chemistry markers),[6],no impact
same,TNF-α production by BMDC,[7],substantial reduction
same,Anti-GAA peptide antibody titers vs GAA peptide alone,[8],lower

# Source: patent publication US20220016241A1, “COMPOSITIONS AND METHODS FOR REDUCING ANTIGEN-SPECIFIC IMMUNOGENICITY” (The Research Foundation for The State University of New York, priority 2013, published 2022)
